Test results from US12077503B2, “Substituted cyclic amides and their use as herbicides” (FMC CORPORATION, priority 2015, dated 2024).

What was measured:
Format in all cases: in vivo
[1] = system: Kochia (Kochia scoparia); assay: Test A preemergence; conditions: Bassia scoparia, pre-emergence, 240 h, 0 to 100 scale where 0 is no effect and 100 is complete control, read-out: Kochia plant response rating
Method in brief: (§1)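 Each rating is a visual injury score from 0 to 100 given about 10 d after treatment, judged against untreated controls kept alongside in the greenhouse. In loam soil–sand blend, seeds got a preemergence directed soil spray, while postemergence plants were 2 to 10 cm tall at spraying.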

[2] = system: barnyardgrass (Echinochloa crus-galli); assay: Test A preemergence; conditions: Echinochloa crus-galli, pre-emergence, 240 h, 0 to 100 scale where 0 is no effect and 100 is complete control, read-out: Barnyardgrass plant response rating
Method in brief: as §1

[3] = system: giant foxtail (Setaria faberii); assay: Test A preemergence; conditions: Setaria faberi, pre-emergence, 240 h, 0 to 100 scale where 0 is no effect and 100 is complete control, read-out: Foxtail, Giant plant response rating
Method in brief: as §1

[4] = system: pigweed (Amaranthus retroflexus); assay: Test A preemergence; conditions: Amaranthus retroflexus, pre-emergence, 240 h, 0 to 100 scale where 0 is no effect and 100 is complete control, read-out: Pigweed plant response rating
[5] = system: ragweed (common ragweed, Ambrosia elatior); assay: Test A preemergence; conditions: Ambrosia artemisiifolia, pre-emergence, 240 h, 0 to 100 scale where 0 is no effect and 100 is complete control, read-out: Ragweed plant response rating
Method in brief: as §1

[6] = system: ryegrass, Italian (Italian ryegrass, Lolium multiflorum); assay: Test A preemergence; conditions: Lolium multiflorum, pre-emergence, 240 h, 0 to 100 scale where 0 is no effect and 100 is complete control, read-out: Ryegrass, Italian plant response rating
Method in brief: as §1

[7] = system: Galium (catchweed bedstraw, Galium aparine); assay: Test A postemergence; conditions: Galium, post-emergence, 240 h, Postemergence, read-out: Galium plant response rating (0 to 100 scale)
Method in brief: as §1

[8] = system: Kochia (Kochia scoparia); assay: Test A postemergence; conditions: Bassia scoparia, post-emergence, 240 h, Postemergence, read-out: Kochia plant response rating (0 to 100 scale)
Method in brief: as §1

[9] = system: barnyardgrass (Echinochloa crus-galli); assay: Test A postemergence; conditions: Echinochloa crus-galli, post-emergence, 240 h, Postemergence
Method in brief: as §1

[10] = system: blackgrass (Alopecurus myosuroides); assay: Test A postemergence; conditions: Alopecurus myosuroides, post-emergence, 240 h, Postemergence, read-out: Blackgrass plant response rating (0 to 100 scale)
Method in brief: as §1

[11] = system: corn (Zea mays); assay: Test A postemergence; conditions: Zea mays, post-emergence, 240 h, Postemergence, read-out: Corn plant response rating (0 to 100 scale)
Method in brief: as §1

[12] = system: giant foxtail (Setaria faberii); assay: Test A postemergence; conditions: Setaria faberi, post-emergence, 240 h, Postemergence, read-out: Foxtail, Giant plant response rating (0 to 100 scale)
Method in brief: as §1

[13] = system: pigweed (Amaranthus retroflexus); assay: Test A postemergence; conditions: Amaranthus retroflexus, post-emergence, 240 h, Postemergence, read-out: Pigweed plant response rating (0 to 100 scale)
Method in brief: as §1

[14] = system: ragweed (common ragweed, Ambrosia elatior); assay: Test A postemergence; conditions: Ambrosia artemisiifolia, post-emergence, 240 h, Postemergence, read-out: Ragweed plant response rating (0 to 100 scale)
Method in brief: as §1

[15] = system: ryegrass, Italian (Italian ryegrass, Lolium multiflorum); assay: Test A postemergence; conditions: Lolium multiflorum, post-emergence, 240 h, Postemergence, read-out: Ryegrass, Italian plant response rating (0 to 100 scale)
Method in brief: as §1

[16] = system: wheat (Triticum aestivum); assay: Test A postemergence; conditions: Triticum aestivum, post-emergence, 240 h, Postemergence, read-out: Wheat plant response rating (0 to 100 scale)
Method in brief: as §1

[17] = system: barnyardgrass (Echinochloa crus-galli); assay: Test B flooded paddy test; conditions: Echinochloa crus-galli, 250 g ai/ha, Flood; 0 to 100 scale where 0 is no effect and 100 is complete control; read-out: Barnyardgrass plant response rating
Method in brief: (§2)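 Percent control, visually estimated after 13–15 d in the greenhouse on a 0–100 basis, compares treated pots with untreated ones; compound was put into paddy water 3 cm above the soil when plants had two leaves.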

[18] = system: ducksalad (Heteranthera limosa); assay: Test B flooded paddy test; conditions: Heteranthera limosa, 250 g ai/ha, Flood; 0 to 100 scale where 0 is no effect and 100 is complete control; read-out: Ducksalad plant response rating
Method in brief: as §2

[19] = system: rice (Oryra sativa); assay: Test B flooded paddy test; conditions: Oryza sativa, 250 g ai/ha, Flood; 0 to 100 scale where 0 is no effect and 100 is complete control; read-out: Rice plant response rating
Method in brief: as §2

[20] = system: sedge, umbrella (small-flower umbrella sedge, Cyperus difformis); assay: Test B flooded paddy test; conditions: Cyperus difformis, 250 g ai/ha, Flood; 0 to 100 scale where 0 is no effect and 100 is complete control; read-out: Sedge, Umbrella plant response rating
Method in brief: as §2

[21] = 125 g ai/ha, preemergence, visual injury rating, approximately 10 d
[22] = 125 g ai/ha, visual rating about 10 d after treatment
[23] = 31 g ai/ha, 0 is no effect, 100 is complete control

## CN1C[C@H](c2ccc(C(F)F)cc2)[C@@H](C(=O)Nc2cccnc2F)C1=O [Compound 1274]
[1]; 31 g ai/ha, Preemergence
  pest or weed control at 31 g/ha: 30%
[1]; [21]
  pest or weed control at 125 g/ha: 70%
[2]; 31 g ai/ha, Preemergence
  pest or weed control at 31 g/ha: 30%
[2]; [21]
  pest or weed control at 125 g/ha: 90%
[3]; 31 g ai/ha, Preemergence
  pest or weed control at 31 g/ha: 80%
[3]; [21]
  pest or weed control at 125 g/ha: 90%
[4]; 31 g ai/ha, Preemergence
  pest or weed control at 31 g/ha: 30%
[4]; [21]
  pest or weed control at 125 g/ha: 70%
[5]; 31 g ai/ha, Preemergence
  pest or weed control at 31 g/ha: 20%
[5]; [21]
  pest or weed control at 125 g/ha: 80%
[6]; 31 g ai/ha, Preemergence
  pest or weed control at 31 g/ha: 0%
[6]; [21]
  pest or weed control at 125 g/ha: 20%
[7]; [22]
  pest or weed control at 125 g/ha: 60%
[7]; [23]
  pest or weed control at 31 g/ha: 50%
[8]; [22]
  pest or weed control at 125 g/ha: 70%
[8]; [23]
  pest or weed control at 31 g/ha: 50%
[9]; 125 g ai/ha, visual rating about 10 d after treatment, read-out: Barnyardgrass plant response rating (0 to 100 scale, 0 no effect, 100 complete control)
  pest or weed control at 125 g/ha: 90%
[9]; 31 g ai/ha, 0 is no effect, 100 is complete control, read-out: Barnyardgrass plant response rating (0 to 100 scale)
  pest or weed control at 31 g/ha: 50%
[10]; [22]
  pest or weed control at 125 g/ha: 30%
[10]; [23]
  pest or weed control at 31 g/ha: 0%
[11]; [22]
  plant injury at 125 g/ha: 30%
[11]; [23]
  plant injury at 31 g/ha: 30%
[12]; [22]
  pest or weed control at 125 g/ha: 90%
[12]; [23]
  pest or weed control at 31 g/ha: 50%
[13]; [22]
  pest or weed control at 125 g/ha: 20%
[13]; [23]
  pest or weed control at 31 g/ha: 0%
[14]; [22]
  pest or weed control at 125 g/ha: 30%
[14]; [23]
  pest or weed control at 31 g/ha: 0%
[15]; [22]
  pest or weed control at 125 g/ha: 20%
[15]; [23]
  pest or weed control at 31 g/ha: 0%
[16]; [22]
  plant injury at 125 g/ha: 60%
[16]; [23]
  plant injury at 31 g/ha: 20%
[17]
  pest or weed control at 250 g/ha: 20%
[18]
  pest or weed control at 250 g/ha: 100%
[19]
  pest or weed control at 250 g/ha: 0%
[20]
  pest or weed control at 250 g/ha: 0%
